# Columns and labels:
# tau protein [1] = biological target: T1, tau protein (Homo sapiens, UniProt P10636); experiment: Immunoblot of total tau protein (tau5 antibody) in HEK293 tau cells after 24 h treatment; type: cell-based; conditions: HEK293 tau cells stably expressing wild type full length tau, effect at 1 μM, 10 μM and 20 μM (tested 0, 0.01, 0.1, 1, 10, 20 μM)
# T1 construct: HEK293 tau cells (stably expressing wild type full length tau protein); expressed in transfected cells
# Description: HEK293 tau cells (stably expressing wild type full length tau protein) is subjected to cell culture and pharmaceutical treatment, and after the HEK293 tau cells were cultured in DMEM medium for 24 hours, the micromolecular compounds prepared in the above example with various concentrations (0 μM, 0.01 μM, 0.1 μM, 1 μM, 10 μM, 20 μM) were added, the cells were further cultured for 24 hours. The cells were lysed with RIPA liquid and the cell extraction solution was collected, the proteins in the cell extraction solution were separated with 10% polyacrylamide gel electrophoresis (PAGE), and subsequently immunoblotted with anti-total tau protein antibody (tau5), and the tau protein content was quantitatively analyzed. The detailed operation procedures for preparation of samples, measurement of protein content in the samples, and the immunoblotting process were performed with reference to the following content.
# (1) The growth condition and density of cells in the cell culture plates were observed under a microscope;
# (2) PBS and cell culture plate were precooled on ice, a mixed liquor consisting of 1× buffer solution+PMSF (1:100)+protease inhibitor cocktail (1:1000) was prepared; 80 μl of the mixed liquor was added into each pore of the 6-well plate, and 150 μl of the mixed liquor was added into a culture dish with a diameter of 6 cm; […]
# tau protein [2] = biological target: T1, tau protein; experiment: Fluorescence photograph of total tau protein content in HEK293 tau cells; type: cell-based; conditions: different concentrations
# T1 sequence (P10636 1-441 isoform P10636-8): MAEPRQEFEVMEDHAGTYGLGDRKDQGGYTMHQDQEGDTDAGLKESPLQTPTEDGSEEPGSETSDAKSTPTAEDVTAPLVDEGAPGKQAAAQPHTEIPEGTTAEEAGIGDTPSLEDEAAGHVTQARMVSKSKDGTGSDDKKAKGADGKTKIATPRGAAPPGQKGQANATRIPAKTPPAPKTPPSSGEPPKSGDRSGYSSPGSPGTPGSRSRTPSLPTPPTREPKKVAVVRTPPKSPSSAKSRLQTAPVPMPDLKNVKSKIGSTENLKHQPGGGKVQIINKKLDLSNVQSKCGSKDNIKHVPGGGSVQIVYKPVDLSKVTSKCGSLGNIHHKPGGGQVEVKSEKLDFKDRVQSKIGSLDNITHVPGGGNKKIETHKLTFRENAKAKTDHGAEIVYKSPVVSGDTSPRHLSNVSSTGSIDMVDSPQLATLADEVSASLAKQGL
structure (smiles),measurement,setting,value
CC(=O)N1CCCN(c2nc(NCCc3cccs3)nc(N(C)CC(=O)NCCOCCOCCOCC(=O)N[C@H](C(=O)N3C[C@H](O)C[C@H]3C(=O)NCc3ccc(-c4scnc4C)cc3)C(C)(C)C)n2)CC1 [Compound 4],"content of tau protein in cells (immunoblot, quantitative analysis, FIG. 2 and FIG. 3)",tau protein [1],dose-dependently reduce the content of tau protein in cells
same,"total tau protein content in the HEK293 tau cells (fluorescence photograph, FIG. 4)",tau protein [2],reducing total tau protein content in the HEK293 tau cells

# — patent publication US12186400B2, “Micromolecular compound specifically degrading tau protein, and application thereof” (Shanghai Qiangrui Biotech Co., Ltd., priority 2018, dated 2025)
